These results are taken from patent US12390423B2 (priority 2019, dated 2025).

The structures appear in SMILES notation.

In assay [1] the test system is INS-1 (832/13) cells. Nature of the assay: Glucose stimulated insulin secretion (GSIS) in INS-1 (832/13) cells. Type of assay: cell-based, rat. The following applies: 0.5 mM palmitate 24 h, AvoB 25 μM, ETO 100 μM. How it is done:
To measure glucose stimulated insulin secretion (GSIS) in INS-1(832/13) cells a standard protocol was adopted. […] After treatments were complete, cell media was replaced with KRB (Krebs-Ringer Bicarbonate) buffer. Cells were then challenged with 3 mM glucose for 2 h in KRB buffer after which 500 μL KRB buffer was collected and frozen in −80° C. until analysis. For another 2 h, cells were challenged with 16 mM glucose after which 500 μL KRB was collected and frozen in −80° C. until analysis. The amount of insulin released into the KRB buffer was determined by an ELISA kit (Millipore, Rat/Mouse Insulin Detection kit). Data was normalized for cellular protein content, as determined by the Micro-BCA Protein Assay kit. The glucose-dependent insulin secretory index (GSIS16/3), defined as the ratio between the insulin secretion at 16 mM (stimulatory, surrogate to postprandial glucose levels) and 3 mM (basal, surrogate to fasting glucose levels) glucose was also calculated.

Assay [2] deals with INS-1 (832/13) cells. Nature of the assay: Cytosolic calcium determination (fluo-3AM) in INS-1 (832/13) cells. It counts as cell-based, rat. The conditions noted are these: 0.5 mM palmitate, non-stimulatory glucose, AvoB 25 μM, ETO 100 μM, TMB-8 10 μM. Here is the method:
INS-1 (832/13) cells were treated as described for the FAO assays but also with metabolic modulators dichloroacetate (DCA) (1 mM) and trimetazidine (25 μM) as well as 10 μM endoplasmic reticulum calcium blocker 8-(N,N-Diethylamino)-octyl-3,4,5-trimethoxybenzoate HCl (TMB-8) (Sigma Aldrich) or 25 nM cyclosporin (Sigma Aldrich) in the presence of 0.5 mM palmitate/1 mM L-carnitine. Cytosolic calcium was measured in INS-1 (832/13) cells using fluo-3AM (Invitrogen, F1241) charged fluorescent dye that accumulates in the cytosol and emits green fluorescence after binding calcium ions. A stock solution of 10 mM fluo-3AM was diluted to 5 μM in fluo-3AM loading buffer (10 mM 4-(2-hydroxyethyl)-1-piperazineethanesulfonic acid (HEPES), 137 mM NaCl, […], 1 mM Na2HPO4, 5 mM glucose, and 0.5 mM MgCl2 (pH 7.4)]. After treatment, cells were incubated in fluo-3AM loading buffer for 30 min at 37° C. with gentle agitation after which cells were washed twice with PBS, trypsinized and collected for flow cytometry analysis. Cytosolic calcium was quantified by taking the mean green fluorescence values of live gated cells and normalizing to vehicle control.

The subject of assay [3] is C2C12 myotubes. The assay can be described thus: Cellular ATP content in C2C12 myotubes. Type of assay: cell-based, mouse. The conditions noted are these: 0.5 mM palmitate 24 h, AVO 25 μM, DCA 1 mM, TRI 25 μM. How it is done: Total cellular ATP content was determined using the ATP bioluminescent assay kit (Calbiochem, 119107). Briefly, cells were seeded in white walled 96-well plates (1.2×10^4 cells/well for INS-1 and 2×10^4 cells/well for C2C12) and treated for 24 h (C2C12 cells were differentiated for 5 days prior to treatments whereas INS-1 cells were treated 24 h after seeding). After treatment, culture media was removed, and cells were lysed with nucleotide releasing buffer with gentle shaking for 5 min. ATP monitoring enzyme was then added to cell lysates and plates and luminescence was read in a Biotek Synergy HT spectrophotometer (Biotek; Winooski, VT).

Assay [4] deals with insulin signaling (pAkt-Ser473), MAPK, AMPK. The assay can be described thus: Immunoblotting (pAkt, pERK1/2, pP38, pAMPKα, PGC-1α) and NAO mitochondrial mass in C2C12 myotubes. It counts as cell-based, mouse. The following applies: 0.5 mM palmitate 24 h, 100 nM insulin 30 min, AvoB 25 μM, DCA 1 mM, TRI 25 μM. Here is the method:
For all ROS studies, INS-1 (832/13) cells and C2C12 myotubes were treated with or without palmitate and FAO inhibitors for 24 h in low glucose cell culture media as described for the FAO assay. After treatment, cells were trypsinized and re-suspended in PBS containing 5 μM of the fluorescent dye MitoSOX® (Molecular Probes, Invitrogen) and allowed to incubate for 5-15 minutes in a humidified atmosphere containing 5% CO2 at 37° C. Cells were then washed in PBS, placed in a 96 well plate and fluorescence was measured by flow cytometry. ROS was quantified by normalizing the mean fluorescence values of live gated cells to vehicle control. Mitochondrial membrane potential (MMP) in INS-1 (832/13) and C2C12 myotubes was measured using the cationic fluorescent dye JC-1 (Molecular Probes). JC-1 accumulates in the mitochondrial matrix in an MMP dependent manner. JC-1 fluoresces green in the cytosol where it exists as a monomer, after entering the mitochondria JC-1 monomers form J aggregates and fluoresce red, thus the red/green fluorescence ratio is used to determine MMP. After all treatments, cells were washed, trypsinized and re-suspended in PBS containing 1 μM JC-1 and allowed to incubate for 5-10 minutes in a humidified atmosphere containing 5% CO2 at 37° C. Cells were then washed in PBS, placed in a 96 well plate and fluorescence was measured by flow cytometry. MMP was quantified by normalizing the mean fluorescence values of live gated cells to vehicle control. Mitochondrial mass was measured using 10-N-nonyl acridine orange (NAO; Enzo Life Sciences, ENZ-52306), which accumulates in the mitochondria in an MMP-independent manner where it binds to cardiolipin in the inner mitochondrial membrane. Cells were treated, washed and collected as described and incubated with 0.35 μM NAO and green fluorescence was measured using flow cytometry. In all analysis (ROS, MMP and mitochondrial mass), forward vs side scatter plots were gated to exclude debris (e.g., dead cells), as cell death is associated with increased ROS and altered membrane potentials. For all cell culture experiments, after drug treatments cells were washed with chilled phosphate-buffered saline (PBS), and lysed in chilled lysis buffer with 1× protease inhibitor cocktail (Sigma). RIPA lysis buffer (Sigma-Aldrich) was used for INS-1 (832/13) cells and muscle lysis buffer for C2C12 myotubes (20 mM HEPES, 10 mM NaCl, 1.5 mM MgCl2, 1 mM DTT, 20% glycerol, and 0.1% Triton-X100). Cells were scraped, mechanically homogenized using a syringe and centrifuged at 14,000×g for 20 min at 4° C. and the supernatants were collected. For preparation of all gastrocnemius muscle lysates, 10 mg frozen tissue (wet weight) was washed in chilled PBS, placed in a dounce homogenizer, lysed in muscle lysis buffer and centrifuged at 14,000×g for 20 min at 4° C. and the supernatant was collected. Protein content for cell and tissue lysates was measured using the BCA protein assay kit (ThermoFisher) according to manufacturer's protocol. Thirty μg protein lysates were prepared in loading buffer and immunoblotting was performed by heating lysates for 5 minutes at 95° C. and subjecting them to gel electrophoresis on 10% SDS-polyacrylamide gels at 150 V for 75 minutes. Using a semi-dry transfer apparatus (Bio-Rad) the gels were then transferred at 25V for 45 minutes to a PVDF membrane and blocked with 5% BSA (Sigma) in tris-buffered saline-tween (TBS-T) for 1 hour. […]
On the technique in general: A western blot detects proteins with antibodies after separation by electrophoresis.

For the compound `CCOC(=O)[C@@]1(CCCCCCOc2ccc(Cl)cc2)CO1` [ETO, etomoxir, reference compound], in assay [1], the “Glucose stimulated insulin secretion (GSIS)” value is “GSIS was higher”. Also, in assay [2], the “Cytosolic Ca2+ (Fluo-3AM)” value is “able to reduce cytosolic Ca^2+”.

As to `CCN(CC)CCCCCCCCOC(=O)c1cc(OC)c(OC)c(OC)c1.Cl` [TMB-8, 8-(N,N-Diethylamino)-octyl-3,4,5-trimethoxybenzoate HCl], in assay [2], the “Cytosolic Ca2+ (Fluo-3AM)” value is given as “able to reduce cytosolic Ca^2+”.

For `COc1ccc(CN2CCNCC2)c(OC)c1OC` [trimetazidine, reference compound], in assay [3], the “Total cellular ATP content” value is reported as “did not exert such effects”. Also, the “Insulin signaling (insulin stimulated phosphorylation of AKT Ser473)” value in assay [4] is listed as “did not exert such effects”.
